US6465455B1, “Benzamide derivatives for the treatment of diseases mediated by cytokines” (AstraZeneca AB, priority 1998, dated 2002)

Row | Compound | melting point [°C]
1 | COc1ccc(C(=O)Nc2cc(NC(=O)c3cccc(N4CCOCC4)c3)ccc2Cl)cc1OC [Example 4, N-[2-chloro-5-(3-morpholinobenzamido)phenyl]-3,4-dimethoxybenzamide] | 147.9 to 148.3
2 | CC(=O)Oc1ccc(C(=O)Nc2ccc(Cl)c(NC(=O)c3ccc(C#N)cc3)c2)cc1 [Example 14, N-[5-(4-acetoxybenzamido)-2-chlorophenyl]-4-cyanobenzamide] | 195 to 196
